In patent US20170122958A1, “Enzymes Functional Probes” (University of Dundee, priority 2013, published 2017):

Experiments:
Brd4(1) = molecular target: T1, Brd4(1) (Homo sapiens, UniProt O60885); assay: DSF thermal shift; assay type: binding; settings: wild type
T1 construct: Plasmids of the eight single BET bromodomain constructs Brd2(1), Brd2(2), Brd3(1), Brd3(2), Brd4(1), Brd4(2), Brdt(1) and Brdt(2); His6 (N); made in house; host or cells: E. coli BL21(DE3)

Brd4(2) = molecular target: T2, Brd4(2) (Homo sapiens, UniProt O60885); assay: DSF thermal shift; assay type: binding; settings: wild type
T2 construct: Plasmids of the eight single BET bromodomain constructs Brd2(1), Brd2(2), Brd3(1), Brd3(2), Brd4(1), Brd4(2), Brdt(1) and Brdt(2); His6 (N); made in house; host or cells: E. coli BL21(DE3)

brd4(1)L094A = molecular target: T3, brd4(1)L094A (Homo sapiens, UniProt O60885, L94A); assay: DSF thermal shift; assay type: binding; settings: mutant
T3 construct: Plasmids of the eight single BET bromodomain constructs Brd2(1), Brd2(2), Brd3(1), Brd3(2), Brd4(1), Brd4(2), Brdt(1) and Brdt(2); His6 (N); made in house; host or cells: E. coli BL21(DE3)

brd4(2)L387A = molecular target: T4, brd4(2)L387A (Homo sapiens, UniProt O60885, L387A); assay: DSF thermal shift; assay type: binding; settings: mutant
T4 construct: Plasmids of the eight single BET bromodomain constructs Brd2(1), Brd2(2), Brd3(1), Brd3(2), Brd4(1), Brd4(2), Brdt(1) and Brdt(2); His6 (N); made in house; host or cells: E. coli BL21(DE3)

[1] = molecular target: T5, double Leu(94,387)/Ala mutant of GFP-Brd4 (Homo sapiens, UniProt O60885, L387A/L94A); assay: FRAP in transfected U2OS cells; assay type: cell-based; settings: double Leu(94,387)/Ala mutant GFP-Brd4, 1 μM compound
T5 construct: U2OS cells transfected with full-length human GFP-brd4; expressed in transfected cells; host or cells: U2OS human osteosarcoma cells
Experimental: To establish whether selectivity could also be observed within cells, we developed fluorescence recovery after photobleaching (FRAP) assays using full length human GFP-BRD4 transfected into human osteosarcoma cells (U2OS). […] The data shown represent the mean±SEM (n=35-50). Statistical significance was determined by one-tailed t tests: *<0.05; **P<0.01; ***P<0.001; n.s. not significant.
Fluorescence recovery after photobleaching (FRAP) experiments were performed in human osteosarcoma U2OS cells transfected with mammalian expression constructs encoding wild type and mutant GFP chimeras of Brd4. Cells were cultured in DMEM (Gibco) supplemented with fetal bovine serum, Penicillin/Streptamycin and L-Glutamine. Cells were seeded into glass bottom dishes (Willco) to about 40% confluency and transfected with the constructs using Effectene (QIAGEN) at least 18 h before the experiment. […] FRAP studies were performed using a DeltaVision Core mounted on an Olympus IX70 stand with a 60×1.4NA plan apo objective lens equipped with a heated chamber set to 37° C. and a Quantifiable Laser Module (QLM) with 10 mW 488 nm solid state laser delivering a diffraction limited spot to the centre field of view. […] FRAP data was analysed using the SoftWorX software. It was fitted to a 2-dimensional recovery curve using the method of Axelrod as implemented within the software and half-times of recovery were calculated.

SMILES: CC[C@@H](C(=O)OC)[C@@H]1N=C(c2ccc(Cl)cc2)c2cc(OC)ccc2-n2c(C)nnc21 (racemic) [Compound 11, (+−)-methyl (R)-2-((S)-6-(4-chlorophenyl)-8-methoxy-1-methyl-4H-benzo[f][1,2,4]triazolo[4,3-a][1,4]diazepin-4-yl)butanoate]
- ΔTm Brd4(1) (Brd4(1)): 1.5 ± 0.4 K
- ΔTm Brd4(2) (Brd4(2)): 1.5 ± 0.0 K
- ΔTm Brd4(1)* (L094A) (brd4(1)L094A): 10.0 ± 0.2 K
- ΔTm Brd4(2)* (L387A) (brd4(2)L387A): 7.0 ± 0.1 K
- Fluorescence recovery after photobleaching (recovery time) [1]: recovery times comparable to the iBET control
